Values joined by “and” are separate entries in the source; they are usually repeats but may differ in a detail not shown here. Identical values can stand only once. Toxic doses and inconclusive results are not listed.
Tested on: L1210 leukemia ip in BDF1 mice, survival T/C
Experiment: NCI In Vivo Anticancer Drug Screen. Data for tumor model L1210 Leukemia (intraperitoneal) in B6D2F1 (BDF1) mice
Conditions: endpoint: mean survival time, higher = longer survival
Procedure, shortened: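 Tumor cells were implanted, animals were treated, and survival was followed. The result divides the treated measurement by the vehicle-control measurement.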

[1] = dose: 100.0 mg/kg/injection, schedule: Q04DX002 (ip), vehicle: Klucel (hydroxypropylcellulose) (HPC)
[2] = dose: 200.0 mg/kg/injection, schedule: Q04DX002 (ip), vehicle: Klucel (hydroxypropylcellulose) (HPC)
[3] = dose: 400.0 mg/kg/injection, schedule: Q04DX002 (ip), vehicle: Klucel (hydroxypropylcellulose) (HPC)
[4] = dose: 100.0 mg/kg/injection, schedule: Q01DX009 (ip), vehicle: saline with Tween-80
[5] = dose: 200.0 mg/kg/injection, schedule: Q01DX009 (ip), vehicle: saline with Tween-80
[6] = dose: 400.0 mg/kg/injection, schedule: Q01DX009 (ip), vehicle: saline with Tween-80
[7] = dose: 50.0 mg/kg/injection, schedule: Q01DX001 (ip), vehicle: saline
[8] = dose: 100.0 mg/kg/injection, schedule: Q01DX001 (ip), vehicle: saline
[9] = dose: 200.0 mg/kg/injection, schedule: Q01DX001 (ip), vehicle: saline
[10] = dose: 400.0 mg/kg/injection, schedule: Q01DX001 (ip), vehicle: saline
[11] = dose: 100.0 mg/kg/injection, schedule: Q04DX002 (ip), vehicle: saline
[12] = dose: 200.0 mg/kg/injection, schedule: Q04DX002 (ip), vehicle: saline
[13] = dose: 100.0 mg/kg/injection, schedule: Q01DX009 (ip), vehicle: Klucel (hydroxypropylcellulose) (HPC)
[14] = dose: 200.0 mg/kg/injection, schedule: Q01DX009 (ip), vehicle: Klucel (hydroxypropylcellulose) (HPC)
[15] = dose: 100.0 mg/kg/injection, schedule: Q04DX003 (ip), vehicle: other
[16] = dose: 200.0 mg/kg/injection, schedule: Q04DX003 (ip), vehicle: other
[17] = dose: 400.0 mg/kg/injection, schedule: Q04DX003 (ip), vehicle: other

SMILES: COC(OC)c1[nH]c(=S)[nH]c(=O)c1Cc1ccc(Br)cc1
- T/C [1]: 97 % of control
- T/C [2]: 94 % of control
- T/C [3]: 105 % of control

SMILES: OC12CCCCC13CCC1CCCCC1(O2)O3 (configuration not stated)
- T/C [4]: 98 % of control
- T/C [5]: 94 % of control
- T/C [6]: 102 % of control

SMILES: Cc1cc(Br)ccc1N
- T/C [4]: 99 % of control
- T/C [5]: 95 % of control
- T/C [6]: 99 % of control

SMILES: COC(=O)C1CCC2(C)C=CC(=O)C(C)C2C1 (configuration not stated)
- T/C (dose: 75.0 mg/kg/injection, schedule: Q04DX003 (ip), vehicle: saline): 100 % of control
- T/C (dose: 150.0 mg/kg/injection, schedule: Q04DX003 (ip), vehicle: saline): 100 % of control
- T/C (dose: 300.0 mg/kg/injection, schedule: Q04DX003 (ip), vehicle: saline): 96 % of control

SMILES: N#CC(c1ccccc1)C(c1ccccc1)c1ccccc1 (configuration not stated)
- T/C [7]: 102 % of control
- T/C [8]: 102 % of control
- T/C [9]: 98 % of control
- T/C [10]: 98 % of control

SMILES: Cn1nc(C(N)=O)c(C#N)c1N
- T/C (dose: 50.0 mg/kg/injection, schedule: Q04DX002 (ip), vehicle: saline): 103 % of control
- T/C [11]: 92 % of control
- T/C [12]: 95 % of control

SMILES: CN1OC(C#N)(C#N)C(C#N)(C#N)C1c1ccccc1 (configuration not stated)
- T/C (dose: 100.0 mg/kg/injection, schedule: Q01DX009 (ip), vehicle: saline): 103 % of control
- T/C (dose: 100.0 mg/kg/injection, schedule: Q04DX003 (ip), vehicle: saline): 101 % of control
- T/C (dose: 200.0 mg/kg/injection, schedule: Q01DX009 (ip), vehicle: saline): 106 % of control
- T/C (dose: 200.0 mg/kg/injection, schedule: Q04DX003 (ip), vehicle: saline): 89 % of control
- T/C (dose: 400.0 mg/kg/injection, schedule: Q01DX009 (ip), vehicle: saline): 101 % of control
- T/C (dose: 400.0 mg/kg/injection, schedule: Q04DX003 (ip), vehicle: saline): 109 % of control

SMILES: C[CH2][Sn]([CH2]C)([CH2]C)[NH]S(=O)(=O)c1ccc(C)cc1
- T/C (dose: 3.12 mg/kg/injection, schedule: Q01DX009 (ip), vehicle: saline with Tween-80): 92 % of control
- T/C (dose: 12.5 mg/kg/injection, schedule: Q04DX003 (ip), vehicle: saline): 106 % of control

SMILES: COc1ccc(NC(=O)N(CCCl)N=O)cc1OC
- T/C (dose: 0.5 mg/kg/injection, schedule: Q01DX009 (ip), vehicle: Klucel (hydroxypropylcellulose) (HPC)): 115 % of control
- T/C (dose: 1.0 mg/kg/injection, schedule: Q01DX009 (ip), vehicle: Klucel (hydroxypropylcellulose) (HPC)): 123 % of control
- T/C (dose: 1.2 mg/kg/injection, schedule: Q01DX009 (ip), vehicle: Klucel (hydroxypropylcellulose) (HPC)): 115 % of control
- T/C (dose: 1.8 mg/kg/injection, schedule: Q01DX009 (ip), vehicle: Klucel (hydroxypropylcellulose) (HPC)): 113 % of control
- T/C (dose: 2.5 mg/kg/injection, schedule: Q01DX001 (ip), vehicle: carboxymethylcellulose (CMC)): 118 % of control
- T/C (dose: 4.0 mg/kg/injection, schedule: Q01DX009 (ip), vehicle: Klucel (hydroxypropylcellulose) (HPC)): 151 % of control and 152 % of control (2×)
- T/C (dose: 5.0 mg/kg/injection, schedule: Q01DX001 (ip), vehicle: carboxymethylcellulose (CMC)): 118 % of control
- T/C (dose: 6.0 mg/kg/injection, schedule: Q01DX009 (ip), vehicle: Klucel (hydroxypropylcellulose) (HPC)): 165 % of control
- T/C (dose: 6.6 mg/kg/injection, schedule: Q01DX009 (ip), vehicle: carboxymethylcellulose (CMC)): 206 % of control
- T/C (dose: 9.0 mg/kg/injection, schedule: Q01DX009 (ip), vehicle: Klucel (hydroxypropylcellulose) (HPC)): 220 % of control
- T/C (dose: 10.0 mg/kg/injection, schedule: Q01DX009 (ip), vehicle: carboxymethylcellulose (CMC)): 123 % of control
- T/C (dose: 13.0 mg/kg/injection, schedule: Q01DX009 (ip), vehicle: Klucel (hydroxypropylcellulose) (HPC)): 167 % of control and 190 % of control
- T/C (dose: 15.0 mg/kg/injection, schedule: Q01DX001 (ip), vehicle: carboxymethylcellulose (CMC)): 168 % of control
- T/C (dose: 15.0 mg/kg/injection, schedule: Q01DX009 (ip), vehicle: carboxymethylcellulose (CMC)): 106 % of control
- T/C (dose: 20.0 mg/kg/injection, schedule: Q01DX001 (ip), vehicle: other): 227 % of control
- T/C (dose: 20.0 mg/kg/injection, schedule: Q01DX009 (ip), vehicle: Klucel (hydroxypropylcellulose) (HPC)): 92 % of control
- T/C (dose: 30.0 mg/kg/injection, schedule: Q01DX001 (ip), vehicle: carboxymethylcellulose (CMC)): 247 % of control
- T/C (dose: 30.0 mg/kg/injection, schedule: Q01DX001 (ip), vehicle: other): 206 % of control
- T/C (dose: 45.0 mg/kg/injection, schedule: Q01DX001 (ip), vehicle: other): 242 % of control
- T/C (dose: 60.0 mg/kg/injection, schedule: Q01DX001 (ip), vehicle: carboxymethylcellulose (CMC)): 193 % of control

SMILES: COC(=O)C(C(=O)OC)C(c1ccccc1)C(Br)(C(=O)OC)C(=O)OC (configuration not stated)
- T/C [4]: 102 % of control
- T/C [5]: 94 % of control

SMILES: CCc1ccccc1NC(=O)Nc1ccc(C(=O)O)c(O)c1
- T/C [13]: 95 % of control
- T/C [1]: 98 % of control
- T/C [14]: 101 % of control
- T/C [2]: 102 % of control
- T/C (dose: 400.0 mg/kg/injection, schedule: Q01DX009 (ip), vehicle: Klucel (hydroxypropylcellulose) (HPC)): 108 % of control
- T/C [3]: 102 % of control

SMILES: Cc1cc(=O)oc2cc(OC(=O)Nc3ccc(F)c([N+](=O)[O-])c3)ccc12
- T/C [13]: 101 % of control
- T/C [14]: 107 % of control

SMILES: Cn1ccnc1Oc1ccc(Cl)cc1
- T/C (dose: 12.5 mg/kg/injection, schedule: Q04DX002 (ip), vehicle: Klucel (hydroxypropylcellulose) (HPC)): 106 % of control
- T/C (dose: 50.0 mg/kg/injection, schedule: Q04DX002 (ip), vehicle: Klucel (hydroxypropylcellulose) (HPC)): 100 % of control

SMILES: N=C1c2ccccc2-c2nc3ccccc3c(=Nc3ccccc3C(=O)O)n21
- T/C [11]: 89 % of control
- T/C [12]: 86 % of control
- T/C (dose: 400.0 mg/kg/injection, schedule: Q04DX002 (ip), vehicle: saline): 89 % of control

SMILES: COS(=O)(=O)c1ccc[n+](C)c1
- T/C [7]: 100 % of control
- T/C [8]: 105 % of control
- T/C [9]: 98 % of control
- T/C [10]: 96 % of control

SMILES: Cc1ccc2[nH]c(C)c(C3=CC(=O)c4ccccc4C3=O)c2c1
- T/C (dose: 100.0 mg/kg/injection, schedule: Q01DX001 (ip), vehicle: other): 97 % of control
- T/C (dose: 200.0 mg/kg/injection, schedule: Q01DX001 (ip), vehicle: other): 92 % of control

SMILES: O=[N+]([O-])c1ccc(N=Nc2c3ccccc3c(O)n2CO)c([N+](=O)[O-])c1
- T/C [8]: 97 % of control
- T/C [9]: 97 % of control
- T/C [10]: 98 % of control

SMILES: O=C(O)/C=C/C(=O)Nc1ccc(Cl)cc1C(=O)c1ccccc1
- T/C [13]: 101 % of control
- T/C [14]: 98 % of control

SMILES: CCOC(=O)C(OC(=O)c1ccccc1)C(OC(=O)c1ccccc1)C(=O)OCC (configuration not stated)
- T/C [8]: 102 % of control
- T/C [9]: 100 % of control
- T/C [10]: 93 % of control

SMILES: C=COC(=O)NC(C(=O)O)C(C)CC (configuration not stated)
- T/C (dose: 75.0 mg/kg/injection, schedule: Q01DX001 (ip), vehicle: saline): 111 % of control
- T/C (dose: 150.0 mg/kg/injection, schedule: Q01DX001 (ip), vehicle: saline): 103 % of control

SMILES: O=C1C=CC(=O)C2C3C=CC(C3)C12 (configuration not stated)
- T/C (dose: 25.0 mg/kg/injection, schedule: Q01DX009 (ip), vehicle: Klucel (hydroxypropylcellulose) (HPC)): 102 % of control
- T/C (dose: 50.0 mg/kg/injection, schedule: Q01DX009 (ip), vehicle: Klucel (hydroxypropylcellulose) (HPC)): 98 % of control
- T/C [13]: 94 % of control and 102 % of control

SMILES: c1ccc(NC(c2ccccc2)C(Nc2ccccc2)(c2ccccc2)c2ccccc2)cc1 (configuration not stated)
- T/C [15]: 89 % of control
- T/C [16]: 94 % of control
- T/C [17]: 87 % of control

SMILES: CCSC1OC(C(COC(C)=O)OC(C)=O)C(OC(C)=O)C1SCC (configuration not stated)
- T/C [15]: 97 % of control
- T/C [16]: 103 % of control
- T/C [17]: 101 % of control

— PubChem BioAssay AID248 (DTP/NCI, 2004)
